Measured values published in publication PMC6178282, “Comparative cell biological study of in vitro antitumor and antimetastatic activity on melanoma cells of GnRH-III-containing conjugates modified with short-chain fatty acids” (Beilstein Journal of Organic Chemistry, 2018).

Columns and labels:
A2058 melanoma cells [1] = assay: Morphometry analysis by HoloMonitor M4 holographic microscopy; format: cell-based, human; conditions: fold change during treatment normalized to control cells, average ± SD, 50 cells/group, 180 consecutive frames
Experimental: Holographic microscopic measurements were also performed to visualize the morphological changes induced by the conjugates and Dau. This novel technique provided several morphological parameters (e.g., surface area, optical thickness, eccentricity etc.) that allowed understanding of the results of impedance-based adhesion measurement. Holographic images were taken before and after the 3-hour treatment of A2058 cells with the compounds. The change in the morphological parameters shown in Table S1 in Supporting Information File 2 was calculated from a fold change during 3 h long treatment and this value was normalized to that of the control cells. The adhesion inducer effects of Dau and GnRH-III(Dau=Aoa) detected by the impedimetric assay were reflected in the morphometry analysis.
The experimental set up we used for the morphometry analysis can be also found in [6]. The HolomonitorTM M4 microscope (Phase Holographic Imaging AB, Lund, Sweden) was used for imaging and tracking the morphological changes of A2058 cells induced by the conjugates and Dau. This technique is dedicated to analyzing the morphology and movement of adherent cells by recording 3D, holographic phase contrast images and tracking them over a given time period. The principle behind this method is the detection of the phase shift of the probing laser light transmitting or reflecting through a cell sample and comparison to the reference light […]
A2058 cells were seeded (2.5 × 10^5 cells) in a petri dish (diameter: 35 mm) and allowed to adhere for 24 h. After automatic calibration of the background and microscope objective (20×), one field of each sample was focused on by the digital autofocus feature. The cells were then treated with the test compounds at the final concentrations of 10−7–10−5 mol/L, or with an equivalent volume of culture medium, and captured every 30 sec for 2 h.
For the evaluation, ca. 50 cells per time-lapse sequence were identified and selected by the minimum error histogram-based threshold algorithm of the HStudioTM M4 2.7.1 software (Phase Holographic Imaging AB, Lund, Sweden). The morphological changes were automatically analyzed over time by selecting and tracking individual cells.
For the morphometry analysis, different basic and complex morphological parameters were […]
The (i) area (surface area of the image occupied by a cell) and (ii) thickness (average spatial cell thickness) were grouped as basic metrics, while the more complex parameters relating to cell shape were: (iii) the eccentricity (how elongated a cell is comparing to a circle), (iv) the hull convexity (how different the 3D shape of a cell is compared to a perfect convex shape) and (v) the irregularity (how different the circumference of a cell is compared to the circumference of a perfect circle).
Table S1: Morphological changes of A2058 melanoma cells induced by the conjugates Compounds/ Area Thickness Eccentricity Hull convexity Irregularity concentrations [%] [%] [%] [%] [%]
[4Lys(Ac)] -GnRH-III(Dau=Aoa )
[4Lys(Bu)]-GnRH-III(Dau=Aoa)
Area (μm2) – surface area of the image that is occupied by the cell; Thickness (μm) – average thickness of the cell; Eccentricity – how elongated a cell comparing to a circle shape; Hull convexity – how different the 3D shape of a cell from the perfect convex shape; Irregularity – how different the circumference of a cell from the circumference of a perfect circle
Data represent averages and ±SD values calculated for 50 cells/group in 180 consecutive frames.
The presented data were calculated by HoloStudioTM M4 2.5 and analyzed by Origin Pro 2016. The levels of significance are shown as follows: *: p<0.05; **: p<0.01; ***: p<0.001

A2058 melanoma cells [2] = assay: Cell cycle analysis, propidium iodide flow cytometry; format: cell-based, human; conditions: 10^−5 M, 24 h
Experimental: Since the conjugates had no or minor apoptotic effect, the cell cycle kinetics of the cells treated with GnRH-III-based conjugates was also investigated to reveal the mechanism of growth inhibition of these conjugates. The distribution of the control and treated cells in the different cell cycle phases was analyzed by measurements of relative DNA contents of individual cells by flow cytometry after propidium iodide (Sigma-Aldrich, St. Louis, MO, USA) staining. […] In parallel, a decrease in the proportions of cells in G1/G0 and G2/M phase and an increase in the percentage of S phase cells were also observed.
Figure 4 Effects of conjugates and daunorubicin (Dau) on cell cycle progression of A2058 melanoma cells. The model cell was incubated with the compounds at 10^−5 M concentration for 24 h. Results are expressed as a percentage of cells in the sub-G1 area and the major phases (G1/G0, S and G2/M) of the cell cycle. Data shown in the figure represent mathematical averages of two parallel measurements. […]
Jose, CA, USA) was used to measure the DNA content of cells with propidium iodide (Sigma-Aldrich, St. Louis, MO, USA) intercalated stoichiometrically to the double-stranded […]
A2058 cells were seeded, treated and harvested in the same way described in section ‘Apoptosis assay’; then, the cells were fixed in ice-cold 70% ethanol and kept at −20 °C for 24 h. The samples were centrifuged and resuspended in RNase (100 μg/ml, Sigma-Aldrich, St. Louis, MO, USA) containing citric acid/sodium phosphate buffer (pH = 7.8). Propidium iodide was added to the sample in 10 μg/ml concentration right before the flow cytometric measurements collecting at 25000 cells/sample.
Data were analyzed by CellQuest Pro and Flowing 2.5.1 (Turku Centre of Biotechnology, Turku, Finland) software. For aggregate/debris discrimination, FL2-Width vs FL2-Area plot […]
values to each population of cell cycle stages.
Measurement of cell adhesion […]
xCELLigence SP System ( ACEA Biosciences, San Diego, CA, USA).
The adhesion assay, analogous to the description in [5], was started with a background measurement as mentioned above in the section “Cell proliferation and cytotoxicity measurement”. In the next steps, the compounds were added in the concentration range of 10−8–10−5 M and the cells were loaded into the wells at a concentration of 10^4 cells/well. […]
NeuroProbe® MBB 96 chamber (NeuroProbe, Gaithersburg, MD, USA) by using polycarbonate filters with pore size 8 μm. To quantify the number of the chemotactically active cells, the alamarBlue-assay was applied as explained above. The ‘Chemotaxis index (Chtx. ind.) plotted in Figure 6 was calculated from the average of 8 parallel measurements and expressed as a percentage of control.

`COc1cccc2c1C(=O)c1c(O)c3c(c(O)c1C2=O)C[C@@](O)(C(C)=O)C[C@@H]3O[C@H]1C[C@H](N)[C@H](O)[C@H](C)O1` [daunorubicin] showed an Area (A2058 melanoma cells [1]; 10^-5 M) of 99.1 ± 4.1%, an Eccentricity (A2058 melanoma cells [1]; 10^-5 M) of 104.4 ± 1.84% and a Hull convexity (A2058 melanoma cells [1]; 10^-5 M) of 101.2 ± 0.29%. It also gave an Irregularity (A2058 melanoma cells [1]; 10^-5 M) of 102.6 ± 2.54%, a Thickness (A2058 melanoma cells [1]; 10^-5 M) of 104.5 ± 2.12% and an Eccentricity (A2058 melanoma cells [1]; 10^-6 M) of 96.6 ± 1.83%. The Hull convexity (A2058 melanoma cells [1]; 10^-6 M) was 100.1 ± 0.23%, the Thickness (A2058 melanoma cells [1]; 10^-6 M) was 95.4 ± 1.87% and the Area (A2058 melanoma cells [1]; 10^-6 M, listed as Dau) was 124.1%. It also gave an Area (A2058 melanoma cells [1]; 10^-7 M) of 94.5 ± 3.72%, an Eccentricity (A2058 melanoma cells [1]; 10^-7 M) of 95.2 ± 2.25% and a Hull convexity (A2058 melanoma cells [1]; 10^-7 M) of 103.4 ± 0.29%. For the same compound, the Irregularity (A2058 melanoma cells [1]; 10^-7 M) was 94.5 ± 2.41%, the Thickness (A2058 melanoma cells [1]; 10^-7 M) was 101.8 ± 1.95% and the “percentage of S phase cells” value (A2058 melanoma cells [2]; compared with control) was “increase”. For the same compound, the “percentage of cells in sub-G1 phase” value (A2058 melanoma cells [2]; control 3.4%, average of two parallels) was 14.1%, the “percentage of cells in G2/M phase” value (A2058 melanoma cells [2]; control 34.3%, average of two parallels) was “decrease” and the “percentage of cells in G1/G0 phase” value (A2058 melanoma cells [2]; control 47.6%, average of two parallels) was “decrease”.
